Tests used:
[1] = tested on: PGEA-induced bronchoconstriction (R2); experiment: Inhibition of PGEA-induced bronchoconstriction in the guinea pig in vivo; conditions: Cavia porcellus, IV injection
[2] = tested on: arachidonic acid induced bronchoconstriction; experiment: Arachidonic acid induced bronchoconstriction and hypotension in the anaesthetized dog; format: in vivo; conditions: intraduodenal administration

Structure (SMILES): O=S1(=O)c2ccccc2COc2ccc(CO)cc21 [Example 13, 2-Hydroxymethy!-6H-dibenz[b,e][1,4]oxathiepin-11,11-dioxide]
- ED50 [1]: 10.5 mg/kg
- inhibition of arachidonic acid induced bronchoconstriction [2]: inhibited
- inhibition of arachidonic acid induced hypotension [2]: not
